The text below walks through data of patent US7488743B2, “Indolin-2-one pyridine derivatives, preparation and therapeutic use thereof” (Sanofi-Aventis, priority 2004, dated 2009).

Data set [1] addresses T1, human vasopressin V1b receptors (Homo sapiens, UniProt P47901).
T1 sequence (P47901 1-424): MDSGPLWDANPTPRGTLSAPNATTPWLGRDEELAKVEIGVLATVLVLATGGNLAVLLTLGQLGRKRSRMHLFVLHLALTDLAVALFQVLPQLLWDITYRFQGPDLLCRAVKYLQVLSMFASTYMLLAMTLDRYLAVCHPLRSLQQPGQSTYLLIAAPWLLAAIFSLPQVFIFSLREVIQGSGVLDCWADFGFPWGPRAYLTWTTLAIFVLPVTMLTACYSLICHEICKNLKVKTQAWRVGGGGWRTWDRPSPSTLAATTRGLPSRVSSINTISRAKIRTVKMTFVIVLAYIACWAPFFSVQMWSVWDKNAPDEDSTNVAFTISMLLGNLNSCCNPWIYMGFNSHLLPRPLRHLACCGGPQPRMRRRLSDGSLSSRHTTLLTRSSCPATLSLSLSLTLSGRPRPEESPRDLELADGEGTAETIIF
Description: affinity for vasopressin V1b receptors (method of Sugimoto et al.). As to conditions: tested at a concentration of 1 μM; read-out: percentage of inhibition on V1b receptors. The class given is binding. The source says:
(§1) The affinity of these compounds for human vasopressin V1a receptors (method described by M. Thibonnier et al. in J. Biol. Chem. (1994), 269, pp. 3304-3310), V1b receptors (method described by T. Sugimoto et al. in J. Biol. Chem. (1994), 269, pp. 27088-27092) and V2 receptors (method described by T. Birnbaumer et al. in Nature (Lond.) (1992), 357, pp. 333-335) has also been studied. The compounds studied have little or no affinity for the V1a, V1b and V2 receptors.

The target in data set [2] is human vasopressin V2 receptors (Homo sapiens, UniProt P30518). Put plainly: affinity for vasopressin V2 receptors (method of Birnbaumer et al.). The data set is classed as binding. As to conditions: tested at a concentration of 1 μM; read-out: percentage of inhibition on V2 receptors.
Sequence of human vasopressin V2 receptors (P30518 whole entry): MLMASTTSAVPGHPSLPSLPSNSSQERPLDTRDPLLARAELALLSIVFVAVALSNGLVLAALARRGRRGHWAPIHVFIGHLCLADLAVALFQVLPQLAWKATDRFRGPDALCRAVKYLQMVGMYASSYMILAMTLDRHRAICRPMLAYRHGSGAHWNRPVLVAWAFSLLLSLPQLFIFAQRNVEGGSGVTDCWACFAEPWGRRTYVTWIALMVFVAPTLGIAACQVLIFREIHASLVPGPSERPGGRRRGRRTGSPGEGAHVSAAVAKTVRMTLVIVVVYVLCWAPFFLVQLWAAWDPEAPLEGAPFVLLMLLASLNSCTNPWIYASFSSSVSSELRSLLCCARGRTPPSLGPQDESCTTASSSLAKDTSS
From the text: as §1

For data set [3], the target named is human vasopressin V1a receptors (Homo sapiens, UniProt P37288). Put plainly: affinity for vasopressin V1a receptors (method of Thibonnier et al.). The class given is binding. The settings on record: tested at a concentration of 1 μM; read-out: percentage of inhibition on V1a receptors.
Sequence of human vasopressin V1a receptors (P37288 whole entry): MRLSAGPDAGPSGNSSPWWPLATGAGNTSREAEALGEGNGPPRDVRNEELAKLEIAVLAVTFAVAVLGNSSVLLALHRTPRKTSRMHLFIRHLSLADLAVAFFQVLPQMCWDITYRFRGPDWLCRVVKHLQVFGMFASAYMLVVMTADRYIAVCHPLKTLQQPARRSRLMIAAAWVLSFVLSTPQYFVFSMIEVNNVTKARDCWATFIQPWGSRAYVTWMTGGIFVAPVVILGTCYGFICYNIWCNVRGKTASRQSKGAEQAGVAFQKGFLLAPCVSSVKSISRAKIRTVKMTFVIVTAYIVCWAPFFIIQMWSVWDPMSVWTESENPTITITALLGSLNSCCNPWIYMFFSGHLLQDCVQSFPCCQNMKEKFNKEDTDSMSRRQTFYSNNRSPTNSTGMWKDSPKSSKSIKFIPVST
From the text: as §1

In data set [4] the target is T2, human uterine oxytocin receptors (Homo sapiens, UniProt P30559).
T2 construct: host or cells: membrane preparation
T2 sequence (P30559 1-389): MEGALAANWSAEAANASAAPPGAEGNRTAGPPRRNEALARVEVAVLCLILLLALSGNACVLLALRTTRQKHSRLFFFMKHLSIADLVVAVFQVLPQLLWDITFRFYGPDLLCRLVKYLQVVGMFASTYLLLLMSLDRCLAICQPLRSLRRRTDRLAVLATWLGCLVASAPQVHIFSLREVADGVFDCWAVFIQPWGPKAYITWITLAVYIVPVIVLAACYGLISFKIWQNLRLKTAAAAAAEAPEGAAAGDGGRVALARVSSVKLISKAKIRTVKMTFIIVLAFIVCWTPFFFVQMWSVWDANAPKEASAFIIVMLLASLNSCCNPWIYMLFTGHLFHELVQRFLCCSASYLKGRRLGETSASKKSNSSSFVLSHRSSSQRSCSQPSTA
Description: in vitro binding test: displacement of a radioiodinated oxytocin analog in a membrane preparation. As to conditions: read-out: IC50 (concentration which inhibits 50% of the binding of the radioiodinated oxytocin analog to its receptors). On the procedure:
The compounds according to the invention have formed the subject of biochemical and pharmacological studies. The affinity of the compounds according to the invention for oxytocin receptors was determined in an in vitro binding test using the method described by J. Elands et al., Eur. J. Pharmacol. (1987), 147, pp. 197-207. This method consists in studying in vitro the displacement of a radioiodinated oxytocin analog at the oxytocin receptors in a membrane preparation of human uterine oxytocin receptors. The IC50 values (concentration which inhibits 50% of the binding of the radioiodinated oxytocin analog to its receptors) are low and vary from 10^−10 to 10^−6 M in the latter test.

The target of data set [5] is T3, cells expressing human oxytocin receptors (Homo sapiens, UniProt P30559).
T3 sequence (P30559 1-389): T2 sequence (P30559 1-389)
Description: measurement of intracellular calcium (agonist or antagonist nature). The data set is classed as cell-based. On the procedure:
The agonist or antagonist nature of the compounds is determined in vitro in a test for the measurement of intracellular calcium with respect to cells expressing human oxytocin receptors according to the general technique described in Am. J. Physiol., 268, and Heart Circ. Physiol. (1995), 37, H404-H410.

pIC50: −log10 of the molar value. Counter-ions that a name gives are not always drawn.

For the compound `CCN(Cc1ccc[n+]([O-])c1)C(=O)c1ccc(Cl)c(C2(C)C(=O)N(Cc3ccc(OC)cc3OC)c3ccc(Cl)cc32)c1` (centres unmarked) [example 7, 4-chloro-3-[5-chloro-1-(2,4-dimethoxybenzyl)-3-methyl-2-oxo-2,3-dihydro-1H-indol-3-yl]-N-ethyl-N-(1-oxypyrid-3-ylmethyl)benzamide hydrochloride], the inhibition at 1 µM in data set [1], in data set [2] and in data set [3] was less than 50% each time. Moreover, in data set [4], the pIC50 is more than 7.30.
On to `CCN(Cc1ccc[n+]([C@@H]2O[C@H](C(=O)O)[C@@H](O)[C@H](O)[C@H]2O)c1)C(=O)c1ccc(Cl)c(C2(C)C(=O)N(Cc3ccc(OC)cc3OC)c3ccc(Cl)cc32)c1` (stereo partly drawn) [example 3, 1-(β-D-Glucopyranuronosyl)-3-[({4-chloro-3-[5-chloro-1-(2,4-dimethoxybenzyl)-3-methyl-2-oxo-2,3-dihydro-1H-indol-3-yl]benzoyl}(ethyl)amino)methyl]pyridinium chloride], for which, in data set [5], the pIC50 is 8.52 and the “agonist or antagonist nature” value is listed as “antagonist”.
As for `CCN(Cc1ccc[n+]([O-])c1)C(=O)c1ccc(Cl)c(C2(C)C(=O)N(Cc3ccc(OC)cc3OC)c3ccc(Cl)cc32)c1` (centres unmarked) (as salt: hydrochloride) [example 7, 4-chloro-3-[5-chloro-1-(2,4-dimethoxybenzyl)-3-methyl-2-oxo-2,3-dihydro-1H-indol-3-yl]-N-ethyl-N-(1-oxypyrid-3-ylmethyl)benzamide hydrochloride], the melting point was found to be 176 °C.
Regarding `CCN(Cc1ccc[n+](CC(=O)O)c1)C(=O)c1ccc(Cl)c(C2(C)C(=O)N(Cc3ccc(OC)cc3OC)c3ccc(Cl)cc32)c1` (centres unmarked) [example 2, 1-Carboxymethyl-3-[({4-chloro-3-[5-chloro-1-(2,4-dimethoxybenzyl)-3-methyl-2-oxo-2,3-dihydro-1H-indol-3-yl]benzoyl}(ethyl)amino)methyl]pyridinium chloride], the pIC50 in data set [4] was 8.16.
